Measured values from PMC5358321 (Synapse (New York, N.Y.), 2016).
pKi: −log10 of the molar value. Several values for one entry are separate records, joined by “and”; a condition that tells them apart may be missing. Equal entries are not always repeated. Marks after values point to notes of the source that are not given here.

Assays:
[1] = molecular target: T1, Aβ plaques (Homo sapiens, UniProt P05067); details: AD brain homogenates using ^18F-florbetapir; ref Choi et al., 2009; cited from earlier work
T1 sequence (P05067 672-711 limits assumed): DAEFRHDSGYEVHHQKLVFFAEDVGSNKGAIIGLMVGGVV

[2] = molecular target: Aβ plaques; details: using ^125I-TZDM; ref Kung et al., 2003; cited from earlier work
[3] = tested on: Aβ plaques; assay: Ki using ^125I-TZDM; format: binding
[4] = molecular target: T1, Aβ plaques; assay: In vitro binding affinity: inhibition of [^3H]PIB binding in human AD brain
[5] = In vivo rat whole body PET/CT, interscapular brown adipose tissue; details: for IBAT +ATX uptake / Ratio uptake at 4.5 min/uptake at 85 min, IBAT +ATX: atomoxetine preinjection
[6] = In vivo rat PET/CT, brain uptake; details: for maximum (peak) activity levels in the various brain regions: 90 min scan; for time to approach plateau in cerebellum (CB): postinjection
[7] = molecular target: T1, Aβ plaques; assay: Postmortem human brain; format: binding; details: for GM/WM, local hot spots in grey matter: normal control NC2, hippocampus sections 7 μm
[8] = 4.5 min post iv injection, baseline
[9] = 4.5 min, atomoxetine preinjection
[10] = 85 min, atomoxetine preinjection
[11] = normal control NC1, hippocampus sections 7 μm
[12] = subject AD1, hippocampus sections 7 μm
[13] = subject AD2, hippocampus sections 7 μm

Structure (SMILES) | IBAT +ATX uptake ([5]; 4.5 min (initial uptake)) | IBAT Baseline uptake [5, 8] [%Injected dose/cc] | IBAT Baseline uptake ([5]; 85 min (end of scan), baseline) | IBAT +ATX uptake ([5]; 85 min) | Ratio uptake at 4.5 min/uptake at 85 min, IBAT +ATX [5] | Ratio uptake at 4.5 min/uptake at 85 min, IBAT Baseline ([5]; baseline) | Cerebellum +ATX uptake [6, 9] [%injected dose/cc] | Frontal Cortex +ATX uptake [6, 9] [%injected dose/cc] | Brain-stem uptake [6, 8] [%injected dose/cc] | Cerebellum uptake [6, 8] [%injected dose/cc] | Frontal Cortex uptake [6, 8] [%injected dose/cc] | Brain-stem uptake ([6]; 85 min (end of scan), baseline) [%injected dose/cc] | Cerebellum +ATX uptake [6, 10] [%injected dose/cc] | Frontal Cortex +ATX uptake [6, 10] | Cerebellum uptake ([6]; 85 min, baseline) [%injected dose/cc] | Frontal Cortex uptake ([6]; 85 min, baseline) [%injected dose/cc] | Ratio of brainstem to frontal cortex ([6]; 85 min postinjection, baseline) | Ratio of cerebellum to frontal cortex ([6]; 85 min postinjection, baseline) | Ratio uptake at 4.5 min/uptake at 85 min, Brain-stem +ATX ([6]; atomoxetine preinjection) | Ratio uptake at 4.5 min/uptake at 85 min, Cerebellum +ATX ([6]; atomoxetine preinjection) | further results
CNc1ccc(-c2cc3cc(O)ccc3o2)c(F)n1 [AZD4694] | – | – | – | – | – | – | – | – | – | – | – | – | – | – | – | – | – | – | – | – | pKi [1]: 8.64
CNc1ccc(C=Cc2ccc(N(C)C)cc2)cc1 [Dalene, 4-methylamino-4′-N,N-dimethylaminostyrylbenzene] | – | – | – | – | – | – | – | – | – | – | – | – | – | – | – | – | – | – | – | – | pKi [2]: 7.82; Times weaker affinity compared to SB-13 ([3]; ^125I-TZDM assay, Kung et al., 2003): approximately 5; Binding affinity relative to SB-13 ([3]; compared to affinity measures of SB-13 in the same assay (^125I-TZDM; Kung et al., 2003)): (0.21) ^i
CNc1ccc(N=Nc2ccc(N(C)C)cc2)cc1 [TAZA, 4-methylamino-4′-N,N-dimethylaminoazobenzene] | – | – | – | – | – | – | – | – | – | – | – | – | – | – | – | – | – | – | – | – | Binding affinity Relative to PIB [4]: 7.81 ^g
CN(C)c1ccc(C=Cc2ccc(N[11CH3])cc2)cc1 [[^11C]Dalene, ^11C-methylamino-4′-dimethylaminostyrylbenzene] | 0.05 %Injected dose/cc and 0.054 %Injected dose/cc | 0.018 | 0.12 %Injected dose/cc and 0.118 %Injected dose/cc | 0.05 %Injected dose/cc | 1.08 | 0.15 | 0.788 | 0.828 | 0.011 | 0.015 | 0.015 | 0.124 | 0.304 | 0.30 %injected dose/cc and 0.304 %injected dose/cc | 0.072 | 0.069 | 1.80 | 1.04 | 2.12 | 2.59 | Ratio of brainstem to frontal cortex [6, 10]: 1.75; Ratio of cerebellum to frontal cortex [6, 10]: 1.0; Ratio uptake at 4.5 min/uptake at 85 min, Frontal Cortex +ATX ([6]; atomoxetine preinjection): 2.72; Ratio uptake at 4.5 min/uptake at 85 min, Brain-stem ([6]; baseline): 0.09; Ratio uptake at 4.5 min/uptake at 85 min, Cerebellum ([6]; baseline): 0.21; time at which brain uptake plateaued ([6]; baseline): approximately 60 min; maximum (peak) activity levels in the various brain regions ([6]; baseline): approximately 0.1 % injected dose/cc; time to approach plateau in cerebellum (CB) ([6]; baseline): approximately 40 min; fold lower GM/WM ratio than [^11C]TAZA ([7]; AD subjects): approximately 5 fold; GM/WM (gray matter to white matter ratio) [7, 11]: ~1; GM/WM, local hot spots in grey matter [7]: grey matter (~2); GM/WM (gray matter to white matter ratio) [7, 12]: 3.68; GM/WM (gray matter to white matter ratio) [7, 13]: 5.34
[11CH3]Nc1ccc(-c2nc3ccc(O)cc3s2)cc1 [[^11C]PIB] | – | – | 0.056 %Injected dose/cc | – | – | – | – | – | – | 0.823 | 0.714 | 0.056 | – | – | 0.124 | 0.045 | – | – | – | – | –
CN(C)c1ccc(N=Nc2ccc(N[11CH3])cc2)cc1 [[^11C]TAZA, 4-[^11C]methylamino-4′-N,N-dimethylaminoazo-benzene] | 0.15 %Injected dose/cc and 0.148 %Injected dose/cc | 0.015 | 0.43 %Injected dose/cc and 0.429 %Injected dose/cc | 0.02 %Injected dose/cc and 0.016 %Injected dose/cc | 9 and 9.25 | 0.04 | 0.695 | 0.627 | 0.013 | 0.010 | 0.007 | 0.285 | 0.154 | 0.160 %injected dose/cc | 0.192 | 0.16 | 1.78 | 1.20 | 4.2 | 4.51 | time at which IBAT activity leveled off / plateau ([5]; baseline): ~90 min; Ratio uptake at 4.5 min/uptake at 85 min, Frontal Cortex +ATX ([6]; atomoxetine preinjection): 3.92; ratio between initial time (4.5 min) and later time (85 min), brain regions ([6]; atomoxetine preinjection, brain regions overall): ~5; Ratio uptake at 4.5 min/uptake at 85 min, Brain-stem ([6]; baseline): 0.05; Ratio uptake at 4.5 min/uptake at 85 min, Cerebellum ([6]; baseline): 0.05; time at which brain uptake plateaued ([6]; baseline): approximately 60 min; maximum (peak) activity levels in the various brain regions ([6]; baseline): approximately 0.3 % injected dose/cc; time to approach plateau in cerebellum (CB) ([6]; baseline): approximately 50 min; reduction of brainstem to frontal cortex ratio by atomoxetine ([6]; end of scan): approximately 10%; displacement of [^11C]TAZA binding by PIB ([7]; 10 μM PIB, gray matter of AD1 and AD2 hippocampus): > 90% and > 94%; gray matter to white matter ratios in AD brains ([7]; AD brains, summary statement): > 20; GM/WM (gray matter to white matter ratio) [7, 11]: ~1; GM/WM, local hot spots in grey matter [7]: in grey matter (≥5); GM/WM (gray matter to white matter ratio) [7, 12]: 19.6; GM/WM (gray matter to white matter ratio) [7, 13]: 30.5
